Test results: PMC9603946, “On the Sensitivity of the Virion Envelope to Lipid Peroxidation” (Microbiology Spectrum, 2022)
Values joined by “and” are separate entries in the source; they are usually repeats but may differ in a detail not shown here. Identical values can stand only once. Like-named read-outs stand apart in the source and are kept apart here. Marks after values point to notes of the source that are not given here.

Assays:
[1] = test system: HSV-1; format: cell-based, HSV-1 KOS; conditions: for drop of viral titers: after 2 h of incubation in atmospheric O2 at 37°C with the substance; for protective effect on infectivity in atmospheric O2: substance alone, without BSA carrier
Method: To test other oxidative conditions, an HSV-1 suspension was incubated in atmospheric oxygen at 37°C in DMEM without serum. The virions were incubated with the previously used antioxidants (vitamin E-BSA and vitamin C), vitamin E without the carrier, the BSA carrier alone, vitamin C-BSA, cholesterol (another compound with a conjugated ring and alkyl chains but with limited antioxidant activity), or cholesterol-BSA. A plaquing efficiency assay was then performed with the treated virions.
A time course plaquing efficiency assay was performed with HSV-1 incubated under atmospheric oxidative conditions. Virions (3 × 10^5 PFU) were incubated with vitamin E, vitamin E-BSA, cholesterol, cholesterol-BSA, vitamin C (10 μM final concentration), or the carrier BSA (0.5% final concentration) for 3 h at 37°C in a water bath with atmospheric air (atmospheric O2). Aliquots from each condition were taken every hour and diluted 1:200 to perform plaquing efficiency assays as previously described on the Vero cells.

[2] = test system: HFF cells; assay: HFF cell viability after 2 h exposure to lipoperoxidators (CellTiter-Glo); conditions: HFF
Method: (§1) The cells were washed twice with warm DMEM before a 100 μL lipoperoxidator solution was transferred with a multichannel pipette from the plate containing the drug dilutions in technical triplicates. The cells were incubated with peroxidators for 2 h at 37°C. Then, the medium was removed, and the cells were washed twice with DMEM at 37°C. The plates were cooled down to RT, and the medium was removed. Then, 50 μL phenol red free DMEM and 50 μL CellTiter-glo Luminiscent Cell Viability Assay (Promega, G7571/2/3) were added and mixed in an orbital shaker for 2 min. Afterwards, 80 μL of the mix was transferred onto white 96-well plates and incubated for 10 min at RT for signal stabilization. The luminescence was read in the Glomax Multidetection System (Promega) with an integration time of 0.5 s.
(§2) The means of the technical triplicates were normalized to the means of the vehicle controls, analyzed via nonlinear regression dose responses, and graphed using GraphPad Prism 9.0. Three or four independent biological replicates were performed for each treatment (n = 3 or 4).
(§3) To evaluate the effects of lipid soluble antioxidants, 10 μM vitamin E was loaded onto carrier 1% BSA in the dark for 4.5 h at RT. The cells were washed twice with DMEM at 37°C and preloaded with 100 μL of 10 μM vitamin E in BSA carrier for 3 h at 37°C. The cells were washed twice again before the addition of any lipoperoxidators. Peroxidators were then added to the cells at working concentrations and incubated for 2 h at 37°C. The peroxidation solution was then removed, and the cells were washed twice with DMEM before analyzing viability. To evaluate the effects of a water soluble antioxidant, the cells were treated with 10 μM vitamin C (final concentration) simultaneously with the lipoperoxidators.

[3] = as above; conditions: human, HFF cells
Method: as §1, §2, §3

[4] = test system: HSV-1; assay: HSV-1 virion infectivity (plaquing efficiency) on HFF cells after virion pretreatment; conditions: for EC50: Human alphaherpesvirus 1, HFF
Method: (§4) The inocula were removed, and the cells were washed and then incubated at 37°C in 5% CO2 until plaques were visible and well-resolved (about 2 days), at which time they were fixed and stained with crystal violet.
(§5) HSV-1 suspensions of 20,000 plaque PFU in 250 μL DMEM were mixed 1:1 with 2-fold serial dilutions of the general peroxidators and were incubated in a water bath for 2 h at 37°C. Next, treated virions were diluted 1:100 before being adsorbed onto cells for 1 h at 37°C. The inocula were removed, and the cells were washed twice with cold DMEM. Infected cells were overlaid with DMEM supplemented with 2% (Vero) or 1% (HFF) methylcellulose and 5% FBS and were incubated at 37°C until plaques were visible and well-resolved, typically in about 2 days. Cell monolayers were fixed and stained with 1% crystal violet in 17% methanol for 18 h at RT. The cells were washed, and the plaques were counted and normalized to those produced by the vehicle treated virions.
(§6) To test the effects of lipid soluble antioxidants on virions, 10 μM vitamin E loaded onto 1% carrier BSA in the dark for 4.5 h at RT was incubated with 10^6 HSV-1 virions for 3 h at 37°C. […] The treated virions were diluted 1:100 before infecting cells. […] The mix was incubated for 2 h at 37°C, diluted 1:100, and used to infect cells. The infectivity of an aliquot of treated virions was tested via a plaque assay.

[5] = test system: HSV-1 virions; assay: microbe, parasite or virus in culture; design: species or system HSV-1 KOS; conditions: virions, at higher AAPH concentrations
Method: (§7) The effects of peroxidators have been commonly evaluated against purified lipids and liposomes as a proxy, but they have not been evaluated against virions ([50], [53][–][55]). We instead directly evaluated the extent of virion lipid peroxidation.
To evaluate virion peroxidation using liperfluo, 50 μL DMEM that contained 5 × 10^6 PFU of HSV-1 was added to 96-well plates. Virions were then preloaded with 10 μM liperfluo for 20 min at 37°C. […] Fluorescence was evaluated in a TECAN Infinite M200 Pro at 515 nm excitation and 545 nm emission. Medium containing no virus was used as blank.
(§8) To evaluate the effects of a lipid soluble antioxidant, cells or virions were preloaded with vitamin E-BSA for 3 h at 37°C. Vitamin E-BSA containing medium was removed, and the cells were washed twice with DMEM. Liperfluo (20 or 10 μM for cells or virions, respectively) or C11-Bodipy (1 μM for cells or 0.1 mol% for virions) were preloaded into the cells or virions for 30 min at 37°C.
(§9) To evaluate the effects of water soluble antioxidants, liperfluo (20 μM for cells or 10 μM for virions) or C11-Bodipy (1 μM for cells or 0.1 mol% for virions) were preloaded into the cells or virions for 30 min at 37°C. […] Fluorescence was evaluated in a TECAN Infinite M200 Pro at 515 nm excitation and 545 nm emission for liperfluo or at 550 nm excitation and 580 to 630 nm emission for C11-Bodipy.

[6] = test system: Vero cells; assay: Vero cell lipid peroxidation probed with C11-Bodipy; format: cell-based, African green monkey; conditions: C11-Bodipy (Fig. 8)
Method: as §7
To evaluate Vero cell lipoperoxidation with C11-Bodipy, 7.5 × 10^3 cells were seeded into each well of 96-well plates and incubated for 18 h at 37°C in 5% CO2 before preloading them with 1 μM C11-Bodipy for 30 min at 37°C. […] Two hours later, the cells were washed twice and lysed with DMSO:isopropanol. Fluorescence was evaluated in a TECAN Infinite M200 Pro at 550 nm excitation and 580 to 630 nm emission with the reading peak at 600 nm.
as §8, §9

[7] = test system: HSV-1; assay: HSV-1 virion infectivity (plaquing efficiency) on Vero cells after virion pretreatment; conditions: for EC50: Human alphaherpesvirus 1, Vero
Method: as §4, §5, §6

[8] = test system: Vero cells; assay: Vero cell lipid peroxidation probed with liperfluo; format: cell-based, African green monkey; conditions: for EC50: Chlorocebus sabaeus, Vero, Liperfluo probe, read-out: CP50 (the source's name)
Method: as §7
To evaluate cell lipid peroxidation using liperfluo, 7.5 × 10^3 Vero cells were seeded into each well of 96-well plates and incubated for 18 h at 37°C in 5% CO2. […] Two hours later, the cells were washed twice, and the fluorescence was evaluated in a TECAN Infinite M200 Pro at 515 nm excitation and 545 nm emission.
as §8, §9

[9] = test system: Vero cells; assay: Vero cell viability after 2 h exposure to lipoperoxidators (CellTiter-Glo); conditions: Vero
Method: as §1, §2, §3

[10] = as above; conditions: African green monkey, Vero cells, CC50, Vero
Method: as §1, §2, §3

[11] = test system: HSV-1 virions; assay: HSV-1 virion lipid peroxidation probed with C11-Bodipy; design: species or system HSV-1 KOS; conditions: C11-Bodipy (Fig. 8)
Method: as §7
To evaluate virion lipoperoxidation with C11-Bodipy, 50 μL DMEM containing 5 × 10^6 PFU of HSV-1 was added into each well of 96-well plates. Virions were then preloaded with 0.1 mol % of C11-Bodipy for 30 min at 37°C. […] Fluorescence was evaluated in a TECAN Infinite M200 Pro at 550 nm excitation and 580 to 630 nm emission with the reading peak at 600 nm.
as §8, §9

[12] = many months of exposure to light at room temperature; no reference given; cited from earlier work
[13] = test system: enveloped viruses; conditions: cited from earlier work

Compound: bovine serum albumin [BSA]
- drop of viral titers [1]: about 30%
- protection of virion infectivity ([1]; after 3 h of incubation in atmospheric O2): about 30%

Compound: CC(C)(N=NC(C)(C)C(=N)N)C(=N)N.Cl.Cl [AAPH, 2,2′-azobis(2-methylpropionamidine) dihydrochloride]
- PI, CC50 (antioxidant)/CC50 ([2]; vitamin C): 1.1
- PI, CC50 (antioxidant)/CC50 ([2]; vitamin E): 0.5 ^*
- CC50 at 2 h [3]: 96.7 mM
- concentration giving a loss of infectivity of about 30% ([4]; 2 h at 37°C): 12.5 mM
- EC50 ([4]; 2 h, no antioxidant, virions treated 2 h at 37°C): 24.7 mM
- EC50 ([4]; virions preloaded with vitamin E (10 μM, BSA carrier)): 31.4 mM
- SI, CC50/EC50 ([4]; vitamin C): 1.7
- minimum inhibitory concentration (MIC) that decreased infectivity in the presence of vitamin C ([4]; vitamin C): 100 mM
- SI, CC50/EC50 ([4]; vitamin E): 3.1
- level of lipoperoxidation detected by liperfluo [5]: < 2 AU
- lowest concentration affecting cell lipid peroxidation [6]: 50 to 100 mM
- EC50 ([7]; 2 h, Vero, no antioxidant, virions treated 2 h at 37°C): 20.8 mM
- EC50 ([7]; Vero, virions preloaded with vitamin E (10 μM, BSA carrier)): 31 mM
- concentration of maximal inhibition of virion infectivity ([7]; Vero): 100 mM
- concentration giving a loss of infectivity of about 30% ([7]; Vero, 2 h at 37°C): 25 mM
- SI, CC50/EC50 ([7]; Vero, vitamin C): 0.9
- minimum inhibitory concentration (MIC) that decreased infectivity in the presence of vitamin C ([7]; Vero, vitamin C): 50 mM
- SI, CC50/EC50 ([7]; Vero, vitamin E): 4.4
- lowest concentration that decreased virion infectivity in the presence of BSA ([7]; Vero, with BSA): 50 mM
- lowest effective concentration on infectivity in the presence of the antioxidants ([7]; Vero, with antioxidants): 25 mM
- EC50 ([8]; no antioxidant): 89.2 mM
- EC50 ([8]; vitamin C): 90.7 mM
- EC50 ([8]; vitamin E): 90.7 mM
- level of lipoperoxidation detected by liperfluo ([8]; cells, at higher AAPH concentrations): < 2 AU
- concentration of maximal inhibition of cell viability [9]: 400000 µM
- lowest concentration that reduced cell viability [9]: 12.5 mM and 25 mM
- PI, CC50 (antioxidant)/CC50 ([9]; vitamin C): 1.3
- PI, CC50 (antioxidant)/CC50 ([9]; vitamin E): 2.0 ^*
- CC50 at 2 h ([10]; no antioxidant, 2 h at 37°C): 69 mM
- CC50 at 2 h ([10]; with vitamin C (10 μM)): 88.4 mM
- lowest concentration affecting virion peroxidation [11]: 200 mM

Compound: Cc1c(C)c2c(c(C)c1O)CC[C@@](C)(CCC[C@H](C)CCC[C@H](C)CCCC(C)C)O2 [vitamin E, alpha tocopherol]
- protection of HSV-1 infectivity against the water soluble peroxidator ([7]; Vero and HFF (Fig. 5B and F), vitamin E preloading): did not protect
- protective effect on infectivity in atmospheric O2 [1]: no protective effects

Compound: O=c1[nH]c(=O)n([C@@H]2O[C@H](CO)[C@@H](O)[C@@H]2O)cc1C#Cc1ccc2c3cccc4cccc(c5cccc1c52)c43 [aUY11, 5-(Perylen-3-yl) ethynyl-arabino-uridine]
- inactivation by light exposure [12]: not inactivated

Compound: O=C1O[C@H]([C@@H](O)CO)C(O)=C1O [vitamin C, L-ascorbic acid]
- drop of viral titers [1]: about 30%

Compound: CC(C)CCC[C@@H](C)[C@H]1CC[C@H]2[C@@H]3CC=C4C[C@@H](O)CC[C@]4(C)[C@H]3CC[C@]12C [cholesterol]
- protective effect on infectivity in atmospheric O2 [1]: no protective effects

Compound: C=CCN1C(=O)/C(=C/c2ccc(-c3ccccc3)o2)SC1=S [LJ001]
- fold over antiviral concentrations at which not cytotoxic [13]: ≥ 100 fold
